This passage reports Kd and IC50 results from PMC8198871, “Suppression of Breast Cancer by Small Molecules That Block the Prolactin Receptor” (Cancers, 2021).

Assay [1] has as its target T1, prolactin receptor (PRLR) (Homo sapiens, UniProt P16471).
T1 construct: extracellular domain (ECD), purified recombinant
T1 sequence (P16471 25-234 limits assumed): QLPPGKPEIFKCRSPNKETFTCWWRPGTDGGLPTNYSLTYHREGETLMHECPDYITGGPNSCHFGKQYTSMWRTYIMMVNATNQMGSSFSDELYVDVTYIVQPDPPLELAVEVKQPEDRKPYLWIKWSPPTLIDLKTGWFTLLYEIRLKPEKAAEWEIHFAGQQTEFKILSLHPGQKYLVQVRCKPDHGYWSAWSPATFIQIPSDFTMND
Put plainly: microscale thermophoresis; confirmed by isothermal titration calorimetry. It is filed as binding. (In general: MST reads how a fluorescent partner responds to local heating, with and without ligand.)

Assay [2] deals with T2, hypocretin receptor 1 (HCRTR1) (Homo sapiens, UniProt O43613).
T2 sequence (O43613 1-425): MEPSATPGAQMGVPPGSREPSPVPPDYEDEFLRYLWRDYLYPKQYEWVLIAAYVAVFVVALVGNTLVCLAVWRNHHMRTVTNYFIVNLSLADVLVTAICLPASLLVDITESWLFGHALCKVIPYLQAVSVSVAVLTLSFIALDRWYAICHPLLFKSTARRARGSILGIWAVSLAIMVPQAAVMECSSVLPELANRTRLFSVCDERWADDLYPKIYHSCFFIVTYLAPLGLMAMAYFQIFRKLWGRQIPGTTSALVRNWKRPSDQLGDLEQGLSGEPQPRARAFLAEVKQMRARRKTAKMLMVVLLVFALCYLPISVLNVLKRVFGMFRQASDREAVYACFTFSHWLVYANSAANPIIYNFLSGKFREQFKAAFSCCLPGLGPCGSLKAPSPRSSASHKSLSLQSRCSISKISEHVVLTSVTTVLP
Put plainly: DiscoverX GPCR selectivity panel, multiple doses. It is filed as cell-based.

Assay [3] has as its target T3, serotonin receptor 2C (HTR2C) (Homo sapiens, UniProt P28335).
T3 sequence (P28335 33-458): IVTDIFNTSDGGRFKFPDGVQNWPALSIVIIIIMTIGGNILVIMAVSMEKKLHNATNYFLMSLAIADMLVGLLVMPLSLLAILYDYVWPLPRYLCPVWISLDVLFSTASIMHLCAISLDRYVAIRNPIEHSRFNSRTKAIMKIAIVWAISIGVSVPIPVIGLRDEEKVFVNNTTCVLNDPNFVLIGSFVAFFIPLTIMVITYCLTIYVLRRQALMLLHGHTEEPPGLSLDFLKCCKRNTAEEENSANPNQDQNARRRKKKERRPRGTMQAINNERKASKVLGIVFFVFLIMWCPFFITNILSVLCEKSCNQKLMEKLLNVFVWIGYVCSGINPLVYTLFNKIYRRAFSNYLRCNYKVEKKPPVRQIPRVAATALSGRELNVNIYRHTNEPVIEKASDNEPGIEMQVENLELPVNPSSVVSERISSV
Put plainly: DiscoverX GPCR selectivity panel, multiple doses. It is filed as cell-based.

For assay [4], the target named is serotonin receptor 2A (HTR2A) (Homo sapiens, UniProt P28223). Put plainly: DiscoverX GPCR selectivity panel, multiple doses. It counts as cell-based.
Chain of serotonin receptor 2A (HTR2A) (P28223 whole entry): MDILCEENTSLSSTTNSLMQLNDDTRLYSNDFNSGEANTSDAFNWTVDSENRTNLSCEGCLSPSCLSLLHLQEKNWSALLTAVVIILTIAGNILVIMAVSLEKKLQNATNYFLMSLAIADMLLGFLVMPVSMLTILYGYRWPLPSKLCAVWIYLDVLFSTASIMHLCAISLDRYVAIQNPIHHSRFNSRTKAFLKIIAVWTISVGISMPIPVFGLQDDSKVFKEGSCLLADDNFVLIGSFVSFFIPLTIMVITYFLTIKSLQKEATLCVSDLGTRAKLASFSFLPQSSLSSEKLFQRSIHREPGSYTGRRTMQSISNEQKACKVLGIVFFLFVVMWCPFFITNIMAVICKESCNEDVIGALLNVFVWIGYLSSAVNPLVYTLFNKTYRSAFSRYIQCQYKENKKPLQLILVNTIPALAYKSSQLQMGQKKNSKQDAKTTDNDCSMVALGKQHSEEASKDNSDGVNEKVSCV

Take `CCN(CC)c1ccc(/C=N/NC(=O)c2c(Cl)cnn2C)c(O)c1` [SMI-6]: in assay [1], binding was characterised by a dissociation constant (Kd) of 3.31 µM. Moreover, the values for the IC50 in assay [2], in assay [3] and in assay [4] were 6.71 µM, 3.48 µM and 2.39 µM, respectively.
